Source: patent US8574563B2 (Bristol-Myers Squibb Company, priority 2006, dated 2013)

Tested on: HCV 1b-377-neo replicon cells
Assay: HCV replicon assay, HCV 1b-377-neo replicon cells (1b FRET)
Assay type: cell-based, Hepatitis C virus genotype 1b
Conditions: Hepatitis C virus, HCV 1b-377-neo replicon cells; HCV 1b genotype; read-out: EC50 range against HCV 1b (Table 2, Range)
Outline: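 FRET-based replicon assay in HCV 1b-377-neo cells, including a comparison line carrying the NS5A Y2065H mutation that confers resistance to a reference compound.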

| SMILES | EC50 [nM] |
| --- | --- |
| CCN(CC)[C@@H](C(=O)N1C[C@@H](O)C[C@H]1c1ncc(-c2ccc(-c3ccc(-c4cnc([C@@H]5C[C@H](O)CN5C(=O)[C@@H](c5ccccc5)N(CC)CC)[nH]4)cc3)cc2)[nH]1)c1ccccc1 [JG-7, (3S,5S,3′S,5′S)-5,5′-(4,4′-biphenyldiylbis(1H-imidazole-5,2-diyl))bis(1-((2R)-2-(diethylamino)-2-phenylacetyl)-3-pyrrolidinol)] | 0.001 to 0.999 |
| O=C([C@H](O)c1ccccc1)N1CCC[C@H]1c1ncc(-c2ccc(-c3ccc(-c4cnc([C@@H]5CCCN5C(=O)[C@H](O)c5ccccc5)[nH]4)cn3)cc2)[nH]1 [Example 133, (1R)-2-((2S)-2-(5-(6-(4-(2-((2S)-1-((2R)-2-hydroxy-2-phenylacetyl)-2-pyrrolidinyl)-1H-imidazol-5-yl)phenyl)-3-pyridinyl)-1H-imidazol-2-yl)-1-pyrrolidinyl)-2-oxo-1-phenylethanol] | 1 to 99 |
| CN(C)[C@@H](C(=O)N1CCC[C@H]1c1ncc(-c2ccc(-c3ccc(-c4cnc([C@@H]5CCCN5C(=O)c5cscn5)[nH]4)cc3)cc2)[nH]1)c1ccccc1 [Example 94-42, (1R)-N,N-dimethyl-2-oxo-1-phenyl-2-((2S)-2-(5-(4′-(2-((2S)-1-(1,3-thiazol-4-ylcarbonyl)-2-pyrrolidinyl)-1H-imidazol-5-yl)-4-biphenylyl)-1H-imidazol-2-yl)-1-pyrrolidinyl)ethanamine] | 0.001 to 0.999 |
| COC(=O)N[C@@H](C(=O)N1CCC[C@H]1c1ncc(-c2ccc(-c3ccc(-c4cnc([C@@H]5CCCN5C(=O)Cc5ccsc5)[nH]4)cc3)cc2)[nH]1)c1ccccc1 [Example 84-73, methyl ((1R)-2-oxo-1-phenyl-2-((2S)-2-(5-(4′-(2-((2S)-1-(3-thienylacetyl)-2-pyrrolidinyl)-1H-imidazol-5-yl)-4-biphenylyl)-1H-imidazol-2-yl)-1-pyrrolidinyl)ethyl)carbamate] | 1 to 99 |
| COC(=O)N[C@@H](C)C(=O)N1[C@H](c2ncc(-c3ccc(-c4ccc(-c5cnc([C@@H]6C[C@@H]7C[C@@H]7N6C(=O)[C@H](C)NC(=O)OC)[nH]5)cc4)cc3)[nH]2)C[C@@H]2C[C@@H]21 [Example M130, methyl ((1S)-2-((1S,3S,5S)-3-(5-(4′-(2-((1S,3S,5S)-2-(N-(methoxycarbonyl)-L-alanyl)-2-azabicyclo[3.1.0]hex-3-yl)-1H-imidazol-5-yl)-4-biphenylyl)-1H-imidazol-2-yl)-2-azabicyclo[3.1.0]hex-2-yl)-1-methyl-2-oxoethyl)carbamate] | 1 to 99 |
| CCCN(CCC)[C@@H](C)C(=O)N1CCC[C@H]1c1ncc(-c2ccc(-c3ccc(-c4cnc([C@@H]5CCCN5C(=O)[C@@H](NC(=O)OC)C(C)C)[nH]4)cc3)cc2)[nH]1 [Example M84, methyl ((1S)-1-(((2S)-2-(5-(4′-(2-((2S)-1-(N,N-dipropyl-L-alanyl)-2-pyrrolidinyl)-1H-imidazol-5-yl)-4-biphenylyl)-1H-imidazol-2-yl)-1-pyrrolidinyl)carbonyl)-2-methylpropyl)carbamate] | 1 to 99 |
| CN(C)CC[C@H](NC(=O)OC(C)(C)C)C(=O)N1CCC[C@H]1c1ncc(-c2ccc(-c3ccc(-c4cnc([C@@H]5CCCN5C(=O)[C@H](CCN(C)C)NC(=O)OC(C)(C)C)[nH]4)cc3)cc2)[nH]1 [cj-140, di-tert-butyl (4,4′-biphenyldiylbis(1H-imidazole-5,2-diyl(2S)-2,1-pyrrolidinediyl((2S)-4-(dimethylamino)-1-oxo-1,2-butanediyl)))biscarbamate] | 100 to 999 |
| CN(C)[C@@H](C(=O)N1CCC[C@H]1c1ncc(-c2ccc(-c3ccc(-c4cnc([C@@H]5CCCN5C(=O)Cc5cccc6ccccc56)[nH]4)cc3)cc2)[nH]1)c1ccccc1 [Example 94-49, (1R)-N,N-dimethyl-2-((2S)-2-(5-(4′-(2-((2S)-1-(1-naphthylacetyl)-2-pyrrolidinyl)-1H-imidazol-5-yl)-4-biphenylyl)-1H-imidazol-2-yl)-1-pyrrolidinyl)-2-oxo-1-phenylethanamine] | 0.001 to 0.999 |
| CCN(CC)[C@@H](C(=O)N1CCC[C@H]1c1ncc(-c2ccc(-c3ccc(-c4cnc([C@@H]5CCCN5C(=O)[C@@H]5CCC[C@H]5NC(=O)OC)[nH]4)cc3)cc2)[nH]1)c1ccccc1 [cj-109, methyl ((1R,2R)-2-(((2S)-2-(5-(4′-(2-((2S)-1-((2R)-2-(diethylamino)-2-phenylacetyl)-2-pyrrolidinyl)-1H-imidazol-5-yl)-4-biphenylyl)-1H-imidazol-2-yl)-1-pyrrolidinyl)carbonyl)cyclopentyl)carbamate] | 0.001 to 0.999 |
| CCN(CC)[C@@H](C(=O)N1CCC[C@H]1c1ncc(-c2ccc(-c3ccc(-c4cnc([C@@H]5CCCN5C(=O)[C@H](Cc5c[nH]c6ccccc56)NC(=O)OC)[nH]4)cc3)cc2)[nH]1)c1ccccc1 [cj-101, methyl ((1S)-2-((2S)-2-(5-(4′-(2-((2S)-1-((2R)-2-(diethylamino)-2-phenylacetyl)-2-pyrrolidinyl)-1H-imidazol-5-yl)-4-biphenylyl)-1H-imidazol-2-yl)-1-pyrrolidinyl)-1-(1H-indol-3-ylmethyl)-2-oxoethyl)carbamate] | 0.001 to 0.999 |
| CCC[C@H](NC(=O)OC)C(=O)N1CCC[C@H]1c1ncc(-c2ccc(-c3ccc(-c4cnc([C@@H]5CCCN5C(=O)[C@@H](c5ccccc5)N(CC)CC)[nH]4)cc3)cc2)[nH]1 [Example M62, methyl ((1S)-1-(((2S)-2-(5-(4′-(2-((2S)-1-((2R)-2-(diethylamino)-2-phenylacetyl)-2-pyrrolidinyl)-1H-imidazol-5-yl)-4-biphenylyl)-1H-imidazol-2-yl)-1-pyrrolidinyl)carbonyl)butyl)carbamate] | 1 to 99 |
| C[C@H](C(=O)N1CCC[C@H]1c1ncc(-c2ccc(-c3ccc(-c4cnc([C@@H]5CCCN5C(=O)[C@@H](C)N(C)C)[nH]4)cc3)cc2)[nH]1)N(C)C [Example M8, (2R,2′R)-1,1′-(4,4′-biphenyldiylbis(1H-imidazole-5,2-diyl(2S)-2,1-pyrrolidinediyl))bis(N,N-dimethyl-1-oxo-2-propanamine)] | 1000 to 10000 |
| COC(=O)N[C@@H](C(=O)N1CCC[C@H]1c1ncc(-c2ccc(-c3ccc(-c4cnc([C@@H]5CCCN5C(=O)c5cncn5C)[nH]4)cc3)cc2)[nH]1)c1ccccc1 [Example 49, methyl ((1R)-2-((2S)-2-(5-(4′-(2-((2S)-1-((1-methyl-1H-imidazol-5-yl)carbonyl)-2-pyrrolidinyl)-1H-imidazol-5-yl)-4-biphenylyl)-1H-imidazol-2-yl)-1-pyrrolidinyl)-2-oxo-1-phenylethyl)carbamate] | 0.001 to 0.999 |
| CCN(CC)[C@@H](C(=O)N1CCC[C@H]1c1ncc(-c2ccc(-c3ccc(-c4cnc([C@@H]5CCCN5C(=O)[C@H](Cc5ccc(O)cc5)NC(=O)OC)[nH]4)cc3)cc2)[nH]1)c1ccccc1 [cj-112, methyl ((1S)-2-((2S)-2-(5-(4′-(2-((2S)-1-((2R)-2-(diethylamino)-2-phenylacetyl)-2-pyrrolidinyl)-1H-imidazol-5-yl)-4-biphenylyl)-1H-imidazol-2-yl)-1-pyrrolidinyl)-1-(4-hydroxybenzyl)-2-oxoethyl)carbamate] | 0.001 to 0.999 |
